Measurements: patent US12559529B2, “NPY2 receptor agonists” (Boehringer Ingelheim International GmbH, priority 2019, dated 2026)
pEC50, pKi: −log10 of the molar value.

Tests used:
[1] = biological target: T1, human NPY5 receptor (Homo sapiens, UniProt Q15761); experiment: HTRF cAMP Gi assay, hY5R
T1 sequence (Q15761 1-445): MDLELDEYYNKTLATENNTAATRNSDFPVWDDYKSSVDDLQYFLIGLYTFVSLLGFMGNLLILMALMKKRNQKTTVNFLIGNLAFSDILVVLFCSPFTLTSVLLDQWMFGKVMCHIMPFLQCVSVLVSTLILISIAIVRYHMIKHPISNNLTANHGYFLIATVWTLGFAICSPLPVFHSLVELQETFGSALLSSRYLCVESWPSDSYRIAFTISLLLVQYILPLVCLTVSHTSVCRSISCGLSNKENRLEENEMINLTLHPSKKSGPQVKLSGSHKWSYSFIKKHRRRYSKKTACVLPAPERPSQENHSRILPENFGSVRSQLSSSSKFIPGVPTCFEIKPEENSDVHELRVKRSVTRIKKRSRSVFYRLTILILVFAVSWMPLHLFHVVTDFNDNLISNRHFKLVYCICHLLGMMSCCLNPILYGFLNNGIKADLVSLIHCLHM

[2] = biological target: T2, human NPY4 receptor (Homo sapiens, UniProt P50391); experiment: HTRF cAMP Gi assay, hY4R; assay type: cell-based; conditions: Table 4; CHO-K1 cells
T2 construct: expressed in transfected cells; host or cells: CHO-K1
From the text: The Homogenous Time Resolved fluorescence (HTRF) technology optimized for Gi coupled receptors has thoroughly been described in Cisbio cAMP Gi kit manual. Briefly, the production of intracellular cAMP will generate a competition between unlabeled cAMP and exogenously added d2-cAMP for anti-cAMP antibodies conjugated to cryptate. CHO-K1 cells stably expressing the human NPY1, NPY2, NPY4 and NPY5 receptors were used with the cells brought to life from a frozen stock immediately before assay performance. 2000 cells per well were applied for all four NPY receptor subtype assays. A 384-well format was used applying a total volume of 20 μl using 5 μl cells, 2.5 μl peptide agonist, 2.5 μl forskolin and 5 μl of each of the fluorophores. […] Concentration-response evaluation of compounds was performed with 11 concentrations of agonist peptides (covering 3 decades). EC50 values were calculated by nonlinear regression using sigmoid concentration-response with variable slope.

[3] = biological target: T3, human NPY1 receptor (Homo sapiens, UniProt P25929); experiment: HTRF cAMP Gi assay, hY1R; assay type: cell-based; conditions: Table 4; CHO-K1 cells
T3 construct: expressed in transfected cells; host or cells: CHO-K1
T3 sequence (P25929 1-384): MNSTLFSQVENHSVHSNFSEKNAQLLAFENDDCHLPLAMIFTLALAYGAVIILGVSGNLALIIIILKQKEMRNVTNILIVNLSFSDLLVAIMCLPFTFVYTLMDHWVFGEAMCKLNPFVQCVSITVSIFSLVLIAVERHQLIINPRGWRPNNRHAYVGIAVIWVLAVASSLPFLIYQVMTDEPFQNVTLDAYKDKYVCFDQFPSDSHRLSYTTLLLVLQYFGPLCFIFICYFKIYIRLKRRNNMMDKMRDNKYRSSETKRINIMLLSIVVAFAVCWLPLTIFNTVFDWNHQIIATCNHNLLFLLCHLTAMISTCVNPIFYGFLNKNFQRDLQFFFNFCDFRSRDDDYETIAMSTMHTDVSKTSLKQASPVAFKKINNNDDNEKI

[4] = biological target: T4, human NPY2 receptor (Homo sapiens, UniProt P49146); experiment: HTRF cAMP Gi assay, hY2R
T4 sequence (P49146 1-381): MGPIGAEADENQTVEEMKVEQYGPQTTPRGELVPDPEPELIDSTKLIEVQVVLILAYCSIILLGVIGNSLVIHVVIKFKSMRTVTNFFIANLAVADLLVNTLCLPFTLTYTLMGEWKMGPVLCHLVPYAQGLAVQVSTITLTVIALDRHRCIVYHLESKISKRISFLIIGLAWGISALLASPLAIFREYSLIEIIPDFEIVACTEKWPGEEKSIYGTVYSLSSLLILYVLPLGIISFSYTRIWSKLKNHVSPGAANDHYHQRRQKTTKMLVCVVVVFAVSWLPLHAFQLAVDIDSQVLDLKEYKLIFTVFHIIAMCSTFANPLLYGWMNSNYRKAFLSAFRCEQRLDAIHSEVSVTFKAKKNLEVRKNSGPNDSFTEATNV
Experimental: Briefly, the production of intracellular cAMP will generate a competition between unlabeled cAMP and exogenously added d2-cAMP for anti-cAMP antibodies conjugated to cryptate. CHO-K1 cells stably expressing the human NPY1, NPY2, NPY4 and NPY5 receptors were used with the cells brought to life from a frozen stock immediately before assay performance. 2000 cells per well were applied for all four NPY receptor subtype assays. A 384-well format was used applying a total volume of 20 μl using 5 μl cells, 2.5 μl peptide agonist, 2.5 μl forskolin and 5 μl of each of the fluorophores. […] Concentration-response evaluation of compounds was performed with 11 concentrations of agonist peptides (covering 3 decades). EC50 values were calculated by nonlinear regression using sigmoid concentration-response with variable slope.

[5] = biological target: T5, Human Neuropeptide Y2 Receptor (Homo sapiens, UniProt P49146); experiment: Radioligand binding competition assay (RLB)
T5 construct: purchased CHEMICON HTS066M
T5 sequence (P49146 1-381): T4 sequence (P49146 1-381)
Summary of the method: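 Peptide dilutions made in pH 7.4 HEPES assay buffer with 0.2% ovalbumin; human Y2 receptor membranes added at 0.5 μg protein/well; plates shaken 2 h at room temperature; reaction stopped by vacuum filtration onto PEI-treated GF/C filters with ice-cold high-salt washes; radioactivity counted by scintillation.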

[6] = biological target: T5, Human Neuropeptide Y2 Receptor; experiment: Activity (RLB) after incubation in solutions at different pH values; assay type: binding; conditions: apparent Ki of filtrate after 2 h in buffer
[7] = Solubility determination; assay type: physicochemical
Experimental: The peptide was dissolved by shaking the filter unit horizontally at 600 rpm for 2 hours at room temperature. […] Both the control and sample were analysed with reversed phase chromatography. The area under the peak of the sample was compared to the control and the solubility was calculated based on that ratio. The pH was measured and recorded for each sample.

T2 sequence (P50391 whole entry): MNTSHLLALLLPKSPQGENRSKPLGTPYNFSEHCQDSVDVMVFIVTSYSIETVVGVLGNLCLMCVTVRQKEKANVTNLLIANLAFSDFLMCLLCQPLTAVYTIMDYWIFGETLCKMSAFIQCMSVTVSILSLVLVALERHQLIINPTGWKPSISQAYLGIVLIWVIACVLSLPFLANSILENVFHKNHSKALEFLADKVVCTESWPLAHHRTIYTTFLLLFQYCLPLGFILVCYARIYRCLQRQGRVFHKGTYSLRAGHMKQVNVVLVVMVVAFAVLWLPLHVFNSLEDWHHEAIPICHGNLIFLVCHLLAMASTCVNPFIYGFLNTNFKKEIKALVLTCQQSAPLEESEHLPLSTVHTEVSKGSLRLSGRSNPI

pEC50 [1]	pEC50 [2]	pEC50 [3]	pEC50 [4]	pKi ([5]; Table 3, human 125I-PYY (1-36) 0.02 nM, Y2 receptor membranes, read-out: Ki)	Ki ([5]; Table 8, from DMSO stock, read-out: hY2R RLB Ki (nM) DMSO) [nM]	pKi ([6]; pH6.1-6.2, assumed 10 mg/ml, read-out: RLB 6 (pH6.1-6.2))	pKi ([6]; pH7.1-7.2, assumed 10 mg/ml, read-out: RLB 7 (pH7.1-7.2))	pKi ([6]; pH8.1-8.2, assumed 10 mg/ml, read-out: RLB 8 (pH8.1-8.2))	[final pH] of Sol pH 6 sample ([7]; pH 6)	[final pH] of Sol pH 7 sample ([7]; pH 7)	Ki ([5]; Table 2, read-out: hY2 RLB (nM) (Ex. 1))	SMILES
< 5.30	< 5.30	< 5.30	9.76	9.18	6	8.11	8.03	8.12	–	–	–	CC(C)CC(=O)N[C@@H](C)C(=O)N1CCC[C@H]1C(=O)N[C@@H](C)C(=O)N[C@@H](CCCCNC(=O)COCCOCCNC(=O)COCCOCCNC(=O)CC[C@H](NC(=O)CCCCCCCCCCCCCCCCC(=O)O)C(=O)O)C(=O)N1CCC[C@H]1C(=O)N[C@@H](CCC(=O)O)C(=O)N[C@@H](CCC(=O)O)C(=O)N[C@@H](CC(=O)O)C(=O)N[C@@H](C)C(=O)N[C@H](C(=O)N1CCC[C@H]1C(=O)N[C@@H](CCC(=O)O)C(=O)N[C@@H](CCC(=O)O)C(=O)N[C@@H](CC(C)C)C(=O)N[C@@H](CCC(N)=O)C(=O)N[C@@H](CCCNC(=N)N)C(=O)N[C@@H](Cc1ccc(O)cc1)C(=O)N[C@@H](Cc1ccc(O)cc1)C(=O)N[C@H](C(=O)N[C@@H](CO)C(=O)N[C@@H](CC(C)C)C(=O)N[C@@H](CCCNC(=N)N)C(=O)N[C@@H](Cc1c[nH]cn1)C(=O)N[C@@H](Cc1ccc(O)cc1)C(=O)N[C@@H](Cc1ccc(O)cc1)C(=O)N[C@@H](CC(N)=O)C(=O)N[C@@H](Cc1c[nH]c2ccccc12)C(=O)N[C@@H](CC(C)C)C(=O)N[C@H](C(=O)N[C@@H](CCCNC(=N)N)C(=O)N[C@@H](CCC(N)=O)C(=O)N[C@@H](CCCNC(=N)N)C(=O)N[C@@H](Cc1ccc(O)cc1)C(N)=O)[C@@H](C)O)C(C)C)[C@@H](C)O [Compound 106, N{alpha-4}-(3-methylbutanoyl)-N{epsilon-7}-[2-(2-{2-[2-(2-{2-[(4S)-4-carboxy-4-(17-carboxyheptadecanamido)butanamido]ethoxy}ethoxy)acetamido]ethoxy}ethoxy)acetamido]-[4A,6A,7K,9E,13T,18Q,22V,28Y,30W,31L]hPYY (4-36)]
–	–	–	9.43	–	–	–	–	–	[6.0]	[6.7]	1.69	CC(C)CC(=O)N[C@@H](CCCNC(=N)N)C(=O)N1CCC[C@H]1C(=O)N[C@@H](CCC(=O)O)C(=O)N[C@@H](CCCCNC(=O)COCCOCCNC(=O)COCCOCCNC(=O)CC[C@H](NC(=O)CCCCCCCCCCCCCCCCC(=O)O)C(=O)O)C(=O)N1CCC[C@H]1C(=O)NCC(=O)N[C@@H](CCC(=O)O)C(=O)N[C@@H](CC(=O)O)C(=O)N[C@@H](C)C(=O)N[C@@H](CO)C(=O)N1CCC[C@H]1C(=O)N[C@@H](CCC(=O)O)C(=O)N[C@@H](CCC(=O)O)C(=O)N[C@@H](CC(C)C)C(=O)N[C@@H](CCC(N)=O)C(=O)N[C@@H](CCCNC(=N)N)C(=O)N[C@@H](Cc1ccc(O)cc1)C(=O)N[C@@H](Cc1ccc(O)cc1)C(=O)N[C@H](C(=O)N[C@@H](CO)C(=O)N[C@@H](CC(C)C)C(=O)N[C@@H](CCCNC(=N)N)C(=O)N[C@@H](C)C(=O)N[C@@H](Cc1ccc(O)cc1)C(=O)N[C@@H](Cc1ccc(O)cc1)C(=O)N[C@@H](CC(N)=O)C(=O)N[C@@H](Cc1c[nH]c2ccccc12)C(=O)N[C@@H](CC(C)C)C(=O)N[C@H](C(=O)N[C@@H](CCCNC(=N)N)C(=O)N[C@@H](CCC(N)=O)C(=O)N[C@@H](CCCNC(=N)N)C(=O)N[C@@H](Cc1ccc(O)cc1)C(N)=O)[C@@H](C)O)C(C)C [Ref. 3, reference compound]
